Reference: patent US20140364453A1, “SALUBRINAL-DRIVEN ATTENUATION OF MALIGNANT PHENOTYPES OF 4T1 BREAST CANCER CELLS” (Indiana University Research and Technology Corporation, priority 2013, published 2014)

Experiments:
cleaved caspase 3 [1] = assay: Western blot of cleaved caspase 3, 4T1 cells; format: cell-based, mouse; details: absence and presence of 10% serum, 10-50 μM salubrinal, 5-50 μM guanabenz
Protocol: (§1) 4T1 mouse mammary tumor cells and MDA-MB-231 human breast cancer cells were cultured in DMEM containing 10% fetal bovine serum and antibiotics (50 units/ml penicillin, and 50 μg/ml streptomycin; Life Technologies, Grand Island, N.Y., USA). Cells were maintained at 37° C. and 5% CO2 in a humidified incubator. Responses to administration of 10-50 μM salubrinal or 5-50 μM guanabenz acetate (Tocris Bioscience, Ellisville, Mo., USA) were evaluated using assays for MTT, adhesion, invasion, and motility. Cells were lysed in a radioimmunoprecipitation assay (RIPA) buffer containing protease inhibitors (Santa Cruz Biotechnology, Santa Cruz, Calif., USA) and phosphatase inhibitors (Calbiochem, Billerica, Mass., USA). Isolated proteins were fractionated using 10-15% SDS gels and electro-transferred to Immobilon-P membranes (Millipore, Billerica, Mass., USA). The membrane was incubated for 1 h with primary antibodies followed by 45 min incubation with goat anti-rabbit or anti-mouse IgG conjugated with horseradish peroxidase (Cell Signaling, Danvers, Mass., USA). […] Protein levels were assayed using a SuperSignal west femto maximum sensitivity substrate (Thermo Scientific, Waltham, Mass., USA), and signal intensities were quantified with a luminescent image analyzer (LAS-3000, Fuji Film, Tokyo, Japan).

4T1 cells [2] = assay: In vitro invasion assay (Boyden chamber, Matrigel), 4T1 cells; format: cell-based, mouse; details: for number of cells invaded through the filter coated with Matrigel: 4T1 cells, 24 h, regardless of serum, 10-50 μM salubrinal, 5-50 μM guanabenz
Protocol: (§2) 4T1 mouse mammary tumor cells and MDA-MB-231 human breast cancer cells were cultured in DMEM containing 10% fetal bovine serum and antibiotics (50 units/ml penicillin, and 50 μg/ml streptomycin; Life Technologies, Grand Island, N.Y., USA). Cells were maintained at 37° C. and 5% CO2 in a humidified incubator. Responses to administration of 10-50 μM salubrinal or 5-50 μM guanabenz acetate (Tocris Bioscience, Ellisville, Mo., USA) were evaluated using assays for MTT, adhesion, invasion, and motility. An invasion assay was performed with a Boyden chamber with minor modifications of the usual procedure. In brief, Matrigel (BD Biosciences) was diluted with ice-cold PBS (100 μg/ml). Six-hundred μl of Matrigel was added to each filter (polyethylene terephthalate membrane, 8-μm pore size, 23.1 mm in diameter, Falcon) and left to polymerize overnight. Prior to assembling the chamber unit, the lower chamber (6-well plate, Falcon) was filled with culture medium consisting of salubrinal or guanabenz. Cells (1˜4×10^5/well) were added to the culture medium with salubrinal or guanabenz in the upper chamber and incubated for 24 h. The cells on the filter surface were stained with Giemsa (Sigma-Aldrich) and the number of cells was counted under the microscope.

NFATc1 = NFATc1 protein expression in primary mouse bone marrow cells; format: cell-based; details: 10 or 20 μM; 2 days
4T1 cells [3] = assay: Cell adhesion assay, 4T1 cells; format: cell-based, mouse; details: surfaces coated with poly-L-lysine, type I collagen, fibronectin, laminin; 30 min and 3 h
Protocol: 4T1 mouse mammary tumor cells and MDA-MB-231 human breast cancer cells were cultured in DMEM containing 10% fetal bovine serum and antibiotics (50 units/ml penicillin, and 50 μg/ml streptomycin; Life Technologies, Grand Island, N.Y., USA). Cells were maintained at 37° C. and 5% CO2 in a humidified incubator. Responses to administration of 10-50 μM salubrinal or 5-50 μM guanabenz acetate (Tocris Bioscience, Ellisville, Mo., USA) were evaluated using assays for MTT, adhesion, invasion, and motility. Ninety-six well plates were coated with poly-L-lysine, fibronectin, laminin (Sigma-Aldrich, St. Louis, Mo., USA), or type I collagen (BD Biosciences, Bedford, Mass., USA) for 2 h. The plates were then incubated with non-fat dry milk, followed by washing with PBS and serum-free culture medium. Cells (1×10^4/well) were added on the plate, and after 30 min and 3 h the attached cells were stained with 0.04% crystal violet (Sigma-Aldrich) for 10 min at room temperature. The wells were washed with PBS, and DMSO was added. Absorbance at 550 nm was measured using the plate reader.

[4] = system: primary mouse bone marrow cells; assay: Osteoclastogenesis in primary mouse bone marrow cells; format: cell-based; details: 10 or 20 μM; 3 days
[5] = system: 4T1 mouse mammary tumor cells; assay: MTT assay, 4T1 cells; format: cell-based
Protocol: (§3) 4T1 mouse mammary tumor cells and MDA-MB-231 human breast cancer cells were cultured in DMEM containing 10% fetal bovine serum and antibiotics (50 units/ml penicillin, and 50 μg/ml streptomycin; Life Technologies, Grand Island, N.Y., USA). Cells were maintained at 37° C. and 5% CO2 in a humidified incubator. Responses to administration of 10-50 μM salubrinal or 5-50 μM guanabenz acetate (Tocris Bioscience, Ellisville, Mo., USA) were evaluated using assays for MTT, adhesion, invasion, and motility. Cells (5×10^2/well) were seeded in 96-well plates, and the reduction of MTT to formazan was evaluated by measuring the absorbance at 570 nm with a plate reader (EL800, BioTek, Winooski, Vt., USA).

[6] = system: NFATc1, TRAP, OSCAR, c-fos, MMP9, and cathepsin K; assay: Relative mRNA abundance in primary mouse bone marrow cells; format: cell-based; details: 10 μM; 24 h
4T1 cells [7] = assay: Two-dimensional wound healing scratch motility assay, 4T1 cells; format: cell-based, mouse; details: for cell motility (scratch-wound assay): 4T1 cells, 20 or 50 μM, 24 h
Protocol: (§4) 4T1 mouse mammary tumor cells and MDA-MB-231 human breast cancer cells were cultured in DMEM containing 10% fetal bovine serum and antibiotics (50 units/ml penicillin, and 50 μg/ml streptomycin; Life Technologies, Grand Island, N.Y., USA). Cells were maintained at 37° C. and 5% CO2 in a humidified incubator. Responses to administration of 10-50 μM salubrinal or 5-50 μM guanabenz acetate (Tocris Bioscience, Ellisville, Mo., USA) were evaluated using assays for MTT, adhesion, invasion, and motility. To evaluate 2-dimensional motility, a wound healing scratch motility assay was carried out. In brief, cells were plated in 12-well plates or 6-cm dishes (Falcon) and on the next day, scratching was performed using a plastic tip. The areas newly occupied with cells in the scratched zone were determined every 3 h up to 24 h using images obtained by a microscope, which were scanned with Adobe Photoshop (CS2, Adobe Systems, San Jose, Calif., USA) and quantified with Image J.

cleaved caspase 3 [8] = assay: Western blot of cleaved caspase 3, MDA-MB-231 cells; format: cell-based, human; details: 20 or 50 μM salubrinal, absence of serum
Protocol: as §1

[9] = system: MDA-MB-231 human breast cancer cells; assay: In vitro invasion assay, MDA-MB-231 cells; format: cell-based; details: 20 or 50 μM salubrinal, 24 h, absence of serum
Protocol: as §2

[10] = system: MDA-MB-231 human breast cancer cells; assay: Scratch motility assay, MDA-MB-231 cells; format: cell-based; details: 20 or 50 μM salubrinal, 24 h, 10% serum
Protocol: as §4

Rac1 GTPase [11] = assay: FRET-based Rac1 activity imaging, MDA-MB-231 cells; format: cell-based, human; details: 20 μM salubrinal
Protocol: (§5) To visualize Rac1 activity in response to salubrinal, FRET imaging was conducted using a cyan fluorescent protein (CFP)-yellow fluorescent protein (YFP) Rac1 biosensor. The filter sets (Semrock) were chosen for CFP excitation at 438±24 nm (center wavelength±bandwidth), CFP emission at 483±32 nm, and YFP emission at 542±27 nm. Time-lapse images were acquired at an interval of 5 min using a fluorescence microscope (Nikon, Tokyo, Japan). The level of Rac1 activity was determined by computing an emission ratio of YFP/CFP for individual cells using NIS-Elements software (Nikon).

Rac1 GTPase [12] = assay: FRET-based Rac1 activity imaging, 4T1 cells; format: cell-based, mouse; details: 20 μM salubrinal
Protocol: as §5

[13] = system: MDA-MB-231 human breast cancer cells; assay: MTT assay, MDA-MB-231 cells; format: cell-based; details: 20 or 50 μM salubrinal
Protocol: as §3

[14] = system: 4T1 mouse mammary tumor cells; assay: In vivo tumor growth, BALB/c mice injected with 4T1 cells; details: 4T1 cells s.c., 25 μg salubrinal s.c. daily, day 20, mean±S.D., N=18
Protocol: Experimental procedures were approved by the Indiana University Animal Care and Use Committee and were in compliance with the Guiding Principles in the Care and Use of Animals endorsed by the American Physiological Society. Five mice were housed per cage, and fed with mouse chow and water ad libitum. Thirty-five BALB/c female mice (6 weeks, Harlan Laboratories) were used. Mice received subcutaneous injection of 4T1 mouse mammary tumor cells (10^6 cells in 100 μl PBS) to the abdomen on day 1. Twenty-five μg of salubrinal was administered subcutaneously into the area of cell injection every day, while the control animals received a vehicle. The animals were sacrificed on day 20, and the volume and weight of tumors were determined. The tumor volume was calculated as (long diameter)×(short diameter)^2/2.

SMILES | level of cleaved caspase 3 (cleaved caspase 3 [1]) | number of cells invaded through the filter coated with Matrigel (4T1 cells [2]) | NFATc1 protein expression (NFATc1) | cell adhesion (absorbance reading, number of adherent cells) (4T1 cells [3]) | TRAP-positive multi-nucleated cells [4] | development of osteoclasts [4] | mRNA levels of NFATc1, TRAP, OSCAR, c-fos, MMP9, and cathepsin K [6] | cell motility (scratch-wound assay) (4T1 cells [7]) | also measured
N=C(N)N/N=C/c1c(Cl)cccc1Cl [guanabenz] | elevated | significantly reduced | Suppression | did not significantly change | Reduction | Reduced development of osteoclasts | reduced | reduced in a dose dependent manner | number of live 4T1 cells (MTT) ([5]; 50 μM guanabenz): decreased
O=C(/C=C/c1ccccc1)NC(NC(=S)Nc1cccc2cccnc12)C(Cl)(Cl)Cl (stereo not drawn) [salubrinal] | elevated | significantly reduced | Suppression | did not significantly change | Reduction | Reduced development of osteoclasts | reduced | reduced in a dose dependent manner | cleaved caspase 3 (cleaved caspase 3 [8]): Dose-dependent elevation; salubrinal-driven reduction in cell invasion (4T1 cells [2]; 4T1 cells treated with eIF2α siRNA vs NC siRNA, 20 or 50 μM salubrinal): significantly suppressed; cell invasion (4T1 cells [2]; 4T1 control cells treated with NC siRNA, 20 or 50 μM salubrinal): reduced by salubrinal in a dose dependent manner; cell invasion [9]: Reduction in cell invasion; number of live 4T1 cells (MTT) ([5]; 10, 20, and 50 μM salubrinal): reduced in a dose dependent manner; cell motility [10]: Reduction in cell motility; salubrinal-driven reduction in cell motility (4T1 cells [7]; 4T1 cells treated with eIF2α siRNA, 20 or 50 μM salubrinal): also suppressed; Rac1 activity (emission ratio of YFP/CFP) (Rac1 GTPase [11]): decreased; salubrinal-driven reduction in Rac1 activity (Rac1 GTPase [12]; 4T1 cells transfected with eIF2α siRNA): significantly suppressed; Rac1 activity (emission ratio of YFP/CFP) (Rac1 GTPase [12]; 4T1 cells): decreased; proliferation (relative cell growth) [13]: inhibitory effects; tumor volume [14]: 384.5±248.1 mm^3; tumor weight [14]: 0.32 ± 0.24 g
